Laboratory results from patent US8192962B2, “Processes for detecting toxic substances” (Daikin Industries, Ltd., priority 2001, dated 2012).

Test system: Detoxification protein genes
Experiment: DNA chip mRNA expression in yeast, detoxification protein genes (Table 8)
Assay type: cell-based, Saccharomyces cerevisiae S288C
In short: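 S. cerevisiae S288C grown at 25° C. in YPD to log phase, then exposed 2 h to a toxicant at a growth-inhibiting, non-lethal concentration; untreated cells as control. Poly(A) mRNA reverse-transcribed with Cy3-dUTP or Cy5-dUTP, hybridized >12 h at 65° C. to whole-genome yeast DNA chip; value = fluorescence ratio treated/untreated.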

CN(C)C(=S)SSC(=S)N(C)C [(10), Tetramethylthiuram disulfide]
The level of expressed mRNA in the presence of chemical substance/The level of expressed mRNA in the absence of chemical substance (yeast gene YBL064C): 3.8
The level of expressed mRNA in the presence of chemical substance/The level of expressed mRNA in the absence of chemical substance (yeast gene YBR008C): 21.1
The level of expressed mRNA in the presence of chemical substance/The level of expressed mRNA in the absence of chemical substance (yeast gene YBR145W): 1.1
The level of expressed mRNA in the presence of chemical substance/The level of expressed mRNA in the absence of chemical substance (yeast gene YBR244W): 3.0
The level of expressed mRNA in the presence of chemical substance/The level of expressed mRNA in the absence of chemical substance (yeast gene YBR293W): 2.4
The level of expressed mRNA in the presence of chemical substance/The level of expressed mRNA in the absence of chemical substance (yeast gene YCL035C): 2.3
The level of expressed mRNA in the presence of chemical substance/The level of expressed mRNA in the absence of chemical substance (yeast gene YCL069W): 6.9
The level of expressed mRNA in the presence of chemical substance/The level of expressed mRNA in the absence of chemical substance (yeast gene YCR083W): 1.8
The level of expressed mRNA in the presence of chemical substance/The level of expressed mRNA in the absence of chemical substance (yeast gene YDL100C): 3.2
The level of expressed mRNA in the presence of chemical substance/The level of expressed mRNA in the absence of chemical substance (yeast gene YDL168W): 4.7
The level of expressed mRNA in the presence of chemical substance/The level of expressed mRNA in the absence of chemical substance (yeast gene YDR256C): 2.0
The level of expressed mRNA in the presence of chemical substance/The level of expressed mRNA in the absence of chemical substance (yeast gene YDR453C): 6.1
The level of expressed mRNA in the presence of chemical substance/The level of expressed mRNA in the absence of chemical substance (yeast gene YDR513W): 3.1
The level of expressed mRNA in the presence of chemical substance/The level of expressed mRNA in the absence of chemical substance (yeast gene YDR538W): 0.8
The level of expressed mRNA in the presence of chemical substance/The level of expressed mRNA in the absence of chemical substance (yeast gene YEL027W): 1.1
The level of expressed mRNA in the presence of chemical substance/The level of expressed mRNA in the absence of chemical substance (yeast gene YEL065W): 4.9
The level of expressed mRNA in the presence of chemical substance/The level of expressed mRNA in the absence of chemical substance (yeast gene YER185W): 1.2
The level of expressed mRNA in the presence of chemical substance/The level of expressed mRNA in the absence of chemical substance (yeast gene YFL050C): 1.6
The level of expressed mRNA in the presence of chemical substance/The level of expressed mRNA in the absence of chemical substance (yeast gene YGL013C): 1.5
The level of expressed mRNA in the presence of chemical substance/The level of expressed mRNA in the absence of chemical substance (yeast gene YGL254W): 1.8
The level of expressed mRNA in the presence of chemical substance/The level of expressed mRNA in the absence of chemical substance (yeast gene YGR088W): 3.2
The level of expressed mRNA in the presence of chemical substance/The level of expressed mRNA in the absence of chemical substance (yeast gene YGR138C): 1.0
The level of expressed mRNA in the presence of chemical substance/The level of expressed mRNA in the absence of chemical substance (yeast gene YGR197C): 3.2
The level of expressed mRNA in the presence of chemical substance/The level of expressed mRNA in the absence of chemical substance (yeast gene YGR209C): 6.3
The level of expressed mRNA in the presence of chemical substance/The level of expressed mRNA in the absence of chemical substance (yeast gene YGR224W): 0.9
The level of expressed mRNA in the presence of chemical substance/The level of expressed mRNA in the absence of chemical substance (yeast gene YHL040C): 11.3
The level of expressed mRNA in the presence of chemical substance/The level of expressed mRNA in the absence of chemical substance (yeast gene YHL047C): 11.9
The level of expressed mRNA in the presence of chemical substance/The level of expressed mRNA in the absence of chemical substance (yeast gene YHR008C): 2.4
The level of expressed mRNA in the presence of chemical substance/The level of expressed mRNA in the absence of chemical substance (yeast gene YHR048W): 2.7
The level of expressed mRNA in the presence of chemical substance/The level of expressed mRNA in the absence of chemical substance (yeast gene YHR053C): 2.9
The level of expressed mRNA in the presence of chemical substance/The level of expressed mRNA in the absence of chemical substance (yeast gene YHR055C): 3.3
The level of expressed mRNA in the presence of chemical substance/The level of expressed mRNA in the absence of chemical substance (yeast gene YIR002C): 1.4
The level of expressed mRNA in the presence of chemical substance/The level of expressed mRNA in the absence of chemical substance (yeast gene YIR038C): 4.5
The level of expressed mRNA in the presence of chemical substance/The level of expressed mRNA in the absence of chemical substance (yeast gene YJL101C): 3.6
The level of expressed mRNA in the presence of chemical substance/The level of expressed mRNA in the absence of chemical substance (yeast gene YJR104C): 2.8
The level of expressed mRNA in the presence of chemical substance/The level of expressed mRNA in the absence of chemical substance (yeast gene YKL026C): 3.0
The level of expressed mRNA in the presence of chemical substance/The level of expressed mRNA in the absence of chemical substance (yeast gene YKL064W): 1.6
The level of expressed mRNA in the presence of chemical substance/The level of expressed mRNA in the absence of chemical substance (yeast gene YKR066C): 2.4
The level of expressed mRNA in the presence of chemical substance/The level of expressed mRNA in the absence of chemical substance (yeast gene YKR105C): 5.2
The level of expressed mRNA in the presence of chemical substance/The level of expressed mRNA in the absence of chemical substance (yeast gene YKR106W): 7.4
The level of expressed mRNA in the presence of chemical substance/The level of expressed mRNA in the absence of chemical substance (yeast gene YLL028W): 2.3
The level of expressed mRNA in the presence of chemical substance/The level of expressed mRNA in the absence of chemical substance (yeast gene YLL057C): 2.9
The level of expressed mRNA in the presence of chemical substance/The level of expressed mRNA in the absence of chemical substance (yeast gene YLL060C): 23.2
The level of expressed mRNA in the presence of chemical substance/The level of expressed mRNA in the absence of chemical substance (yeast gene YLR043C): 2.5
The level of expressed mRNA in the presence of chemical substance/The level of expressed mRNA in the absence of chemical substance (yeast gene YLR046C): 1.4
The level of expressed mRNA in the presence of chemical substance/The level of expressed mRNA in the absence of chemical substance (yeast gene YML028W): 1.8
The level of expressed mRNA in the presence of chemical substance/The level of expressed mRNA in the absence of chemical substance (yeast gene YML116W): 3.1
The level of expressed mRNA in the presence of chemical substance/The level of expressed mRNA in the absence of chemical substance (yeast gene YMR015C): 0.3
The level of expressed mRNA in the presence of chemical substance/The level of expressed mRNA in the absence of chemical substance (yeast gene YMR038C): 2.6
The level of expressed mRNA in the presence of chemical substance/The level of expressed mRNA in the absence of chemical substance (yeast gene YNL239W): 6.0
The level of expressed mRNA in the presence of chemical substance/The level of expressed mRNA in the absence of chemical substance (yeast gene YNL241C): 7.4
The level of expressed mRNA in the presence of chemical substance/The level of expressed mRNA in the absence of chemical substance (yeast gene YNL259C): 2.1
The level of expressed mRNA in the presence of chemical substance/The level of expressed mRNA in the absence of chemical substance (yeast gene YOL158C): 6.1
The level of expressed mRNA in the presence of chemical substance/The level of expressed mRNA in the absence of chemical substance (yeast gene YOR031W): 1.3
The level of expressed mRNA in the presence of chemical substance/The level of expressed mRNA in the absence of chemical substance (yeast gene YOR153W): 1.2
The level of expressed mRNA in the presence of chemical substance/The level of expressed mRNA in the absence of chemical substance (yeast gene YOR247W): 0.4
The level of expressed mRNA in the presence of chemical substance/The level of expressed mRNA in the absence of chemical substance (yeast gene YOR251C): 0.8
The level of expressed mRNA in the presence of chemical substance/The level of expressed mRNA in the absence of chemical substance (yeast gene YOR273C): 0.5
The level of expressed mRNA in the presence of chemical substance/The level of expressed mRNA in the absence of chemical substance (yeast gene YPL163C): 0.4
The level of expressed mRNA in the presence of chemical substance/The level of expressed mRNA in the absence of chemical substance (yeast gene YPR200C): 3.8
